Several values for one entry are separate records, joined by “and”; a condition that tells them apart may be missing. Equal entries are not always repeated.

Consider 6 molecules from PMC9098912, “Molecular basis for inhibiting human glucose transporters by exofacial inhibitors” (Nature Communications, 2022).

The target in test [1] is T1, human glucose transporter GLUT1(N45T) (Homo sapiens, UniProt P11166, N45T).
T1 construct: made in house
T1 sequence (P11166 1-492 N45T): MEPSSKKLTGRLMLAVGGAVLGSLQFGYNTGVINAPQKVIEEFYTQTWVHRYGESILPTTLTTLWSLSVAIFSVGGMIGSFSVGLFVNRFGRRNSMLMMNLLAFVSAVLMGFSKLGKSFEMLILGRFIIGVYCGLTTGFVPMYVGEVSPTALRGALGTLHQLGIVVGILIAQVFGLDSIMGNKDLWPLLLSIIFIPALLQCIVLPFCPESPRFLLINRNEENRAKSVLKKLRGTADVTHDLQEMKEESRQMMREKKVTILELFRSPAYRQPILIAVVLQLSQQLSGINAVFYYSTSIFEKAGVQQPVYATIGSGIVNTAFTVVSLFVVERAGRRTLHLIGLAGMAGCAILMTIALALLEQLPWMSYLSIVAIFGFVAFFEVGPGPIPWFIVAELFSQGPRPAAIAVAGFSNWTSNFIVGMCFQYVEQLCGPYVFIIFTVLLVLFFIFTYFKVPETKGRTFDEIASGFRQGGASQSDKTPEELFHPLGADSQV
The test can be described thus: Proteoliposome-based counterflow assay, inhibition of D-[2-3H]-glucose transport. The conditions noted are these: 100 μM inhibitor; for Figure S1c: transport activity in presence of inhibitor (value1-3) / Inhibition of glucose uptake: GLUT1; for Figure S1c: transport activity in presence of inhibitor (value1-3): 100 µM. Format: biochemical. As to the method:
(§1) All mutants were generated by standard PCR-based strategy.
(§2) All counterflow assays were performed at 25 °C. […] Liposome without protein was used as negative control.
(§3) All experiments were repeated at least three times.

For a further test, the target named is T2, WT GLUT3 (Homo sapiens, UniProt P11169, N43T).
T2 construct: His10 (N); made in house; host or cells: Sf9 insect cells (baculovirus)
T2 sequence (P11169 1-496 N43T): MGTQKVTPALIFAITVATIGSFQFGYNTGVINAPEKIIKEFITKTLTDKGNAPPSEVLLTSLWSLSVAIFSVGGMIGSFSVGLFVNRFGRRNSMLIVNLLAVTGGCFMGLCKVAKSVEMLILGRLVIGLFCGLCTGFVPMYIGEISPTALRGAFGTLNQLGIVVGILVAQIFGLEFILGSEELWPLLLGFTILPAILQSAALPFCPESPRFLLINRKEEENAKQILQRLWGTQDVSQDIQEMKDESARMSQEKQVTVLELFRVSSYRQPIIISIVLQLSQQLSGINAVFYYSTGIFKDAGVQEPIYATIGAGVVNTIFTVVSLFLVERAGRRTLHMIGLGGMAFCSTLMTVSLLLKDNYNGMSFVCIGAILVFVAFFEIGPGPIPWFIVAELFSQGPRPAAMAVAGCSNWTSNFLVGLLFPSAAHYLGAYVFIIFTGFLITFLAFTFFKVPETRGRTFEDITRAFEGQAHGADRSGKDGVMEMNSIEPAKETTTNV
The test can be described thus: Microscale thermophoresis (MST) binding assay. Particulars: GLUT3, log [CCB]. Also noted: Figure 1e middle: MST binding curve, Mean / Figure 1e right: MST binding curve, Mean / Figure 2c: MST binding curve, Mean: unit not given here. Here is the method:
as §1
(§4) Inhibitors with serial dilutions were mixed with indicated protein. […] MST analyses were conducted on a Monolith NT. […] The MST data was analyzed by Monolith NT.115.
In general terms: MST reads how a fluorescent partner responds to local heating, with and without ligand.

Test [2] addresses T3, GLUT3exo (GLUT3 S64W and I305W) (Homo sapiens, UniProt P11169, I305W/N43T/S64W).
T3 construct: His10 (N); made in house; host or cells: Sf9 insect cells (baculovirus)
Kind of test: biochemical. The class given is binding. The conditions noted are these: GLUT3 dTrp mutant, log [CCB]. As to the method: Following the same principle for the engineering of XylE-WW, we introduced two Trp substitutions, S64W and I305W, on the extracellular segments of TM2 and TM8 of GLUT3, respectively. This variant will be referred to as GLUT3exo hereafter (Fig. 1a). The two bulky substituents were expected to trap GLUT3 in an outward-facing conformation.
as §1, §4

Another test deals with T4, human GLUT3(N43T) (Homo sapiens, UniProt P11169, N43T).
T4 construct: His10 (N); made in house; host or cells: Sf9 insect cells (baculovirus)
T4 sequence (P11169 1-496 N43T): T2 sequence (P11169 1-496 N43T)
The test can be described thus: Proteoliposome-based counterflow assay, inhibition of D-[2-3H]-glucose transport. The conditions noted are these: 100 μM inhibitor; for Figure S1d: transport activity in presence of inhibitor (value1-3): three independent experiments, 100 µM. The class given is biochemical. Here is the method: as §1, §2, §3

The target of test [3] is E. coli (strain O157:H7) D-xylose:proton symporter XylE (Escherichia coli O157:H7, UniProt P0AGF5). The conditions noted are these: for Figure S1b: transport activity in presence of inhibitor (value1-3): 100 µM. Here is the method: The recombinant human glucose transporter GLUT1(N45T) and E. coli (strain O157:H7) D-xylose:proton symporter XylE were expressed and purified as described previously[17],[26]. […] In brief, the cDNA of human GLUT3 was cloned into a modified pFastBac vector (Invitrogen) fused with an N-terminal His10 tag. All mutants were generated by standard PCR-based strategy.
Chain of E. coli (strain O157:H7) D-xylose:proton symporter XylE (P0AGF5 whole entry, the tested form may be a part): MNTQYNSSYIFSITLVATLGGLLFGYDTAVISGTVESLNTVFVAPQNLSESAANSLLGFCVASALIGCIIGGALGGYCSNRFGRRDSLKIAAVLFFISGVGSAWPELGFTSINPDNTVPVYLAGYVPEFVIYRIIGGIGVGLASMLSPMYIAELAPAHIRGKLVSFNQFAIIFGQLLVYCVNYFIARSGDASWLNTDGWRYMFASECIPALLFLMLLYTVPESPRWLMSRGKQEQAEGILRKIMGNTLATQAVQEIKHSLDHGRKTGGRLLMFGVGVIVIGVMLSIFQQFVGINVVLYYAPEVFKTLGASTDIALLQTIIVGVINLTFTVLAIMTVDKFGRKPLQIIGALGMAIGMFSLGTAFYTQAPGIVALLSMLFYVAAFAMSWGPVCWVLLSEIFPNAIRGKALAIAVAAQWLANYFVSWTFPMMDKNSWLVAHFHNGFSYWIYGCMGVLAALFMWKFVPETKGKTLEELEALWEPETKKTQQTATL
E. coli polar lipids (Avanti) were dissolved, dried, and resuspended to a final concentration of 20 mg/ml with the KPM 6.5 buffer (50 mM potassium phosphate, 2 mM MgSO4; pH 6.5) supplemented with 50 mM D-glucose or xylose (Sigma). After freeze-and-thaw with liquid nitrogen, the liposomes were extruded through 0.4 μm polycarbonate membranes (Millipore) and incubated with 1% n-octyl-β-d-glucoside (β-OG; Anatrace) at 4 °C for 30 min. Purified protein was incubated with liposomes at a ratio of ~1:100 (w/w) for 60 min. Then β-OG was removed by incubating with Bio-Beads SM2 (Bio-Rad) overnight. The proteoliposomes were subject to freeze-and-thaw again and extruded through 0.4 μm polycarbonate membranes. The homogenized proteoliposomes were ultracentrifuged at 100,000 g at 4 °C for 1 h and rinsed twice with the ice cold KPM 6.5 buffer. Finally, the proteoliposomes were resuspended in the KPM 6.5 buffer to a final concentration of 100 mg/ml (phospholipids).
All counterflow assays were performed at 25 °C. For each assay, an aliquot of 2 μl proteoliposomes was added into 98 μl KPM 6.5 buffer plus 1 μCi D-[2-^3H] glucose (specific radioactivity 23.4 Ci/mmol, PerkinElmer) or D-[^3H] xylose (20 Ci/mmol, American Radiolabeled Chemicals, Inc.). The final concentrations of the external D-[2-^3H] glucose and D-[^3H] xylose were 0.42 μM and 0.5 μM, respectively. Uptake of radio-labeled substrates was terminated at 30 s by rapidly filtering the solution through 0.22 μm GSTF filters (Millipore) and washed with 2.5 ml KPM 6.5 buffer. The filter was solubilized with 0.5 ml Optiphase HISAFE 3 (PerkinElmer) for 30 min for liquid scintillation counting with MicroBeta JET (PerkinElmer). Liposome without protein was used as negative control.
For inhibition assays, an aliquot of 2 μL proteoliposome pre-incubated with 100 μM indicated inhibitors for 0.5 h on ice was added to 98 μL KPM buffer containing 1 μCi D-[2-^3H]-glucose or D-[^3H] xylose with 100 μM inhibitors. To determine the IC50 of the inhibitor, a series of concentrations of the inhibitor was applied as indicated.
All experiments were repeated at least three times. Data for liposome-based counterflow assay were analyzed using GraphPad Prism 6.

T3 sequence (P11169 whole entry N43T/S64W/I305W): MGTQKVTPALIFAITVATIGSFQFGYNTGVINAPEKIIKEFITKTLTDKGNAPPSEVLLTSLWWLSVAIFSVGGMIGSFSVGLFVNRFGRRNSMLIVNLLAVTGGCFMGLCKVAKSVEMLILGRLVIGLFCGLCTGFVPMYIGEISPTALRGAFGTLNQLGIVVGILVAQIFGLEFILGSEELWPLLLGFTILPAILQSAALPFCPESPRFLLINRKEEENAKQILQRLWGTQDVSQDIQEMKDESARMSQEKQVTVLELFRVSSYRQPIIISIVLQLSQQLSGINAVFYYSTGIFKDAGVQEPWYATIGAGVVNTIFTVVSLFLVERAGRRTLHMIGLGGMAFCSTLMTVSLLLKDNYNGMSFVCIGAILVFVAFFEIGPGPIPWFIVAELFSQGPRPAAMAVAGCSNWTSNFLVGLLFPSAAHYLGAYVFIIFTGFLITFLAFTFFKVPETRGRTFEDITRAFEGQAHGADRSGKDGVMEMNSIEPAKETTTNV

On to `C=C1[C@@H](C)[C@H]2[C@H](Cc3ccccc3)NC(=O)[C@]23OC(=O)/C=C/[C@H](O)CCC[C@@H](C)C/C=C/[C@H]3[C@@H]1O` [CCB, cytochalasin B], for which the “Figure S1c: transport activity in presence of inhibitor (value1-3)” value (“Figure S1c … of inhibitor (value1-3)” for short) in test [1] (three independent experiments) was 7.4821 and 5.9756. For the same molecule, in test [1] (read-out: Figure S1c: transport activity in presence of inhibitor (value1-3), GLUT1, three independent experiments), the activity at 100 µM was 5.88%. Further, the “Figure 1e middle: MST binding curve, Mean” value (“Figure 1e middle” below) at WT GLUT3 (M -5.20412) is recorded as 94.2771; on WT GLUT3 (M -5.50515), 91.6933; on WT GLUT3 (M -5.80618), 73.4039; at WT GLUT3 (M -6.10721), 45.8611; at WT GLUT3 (M -6.40824), 32.1651; at WT GLUT3 (M -7.0103) it was 19.0619. In addition, the “Figure 1e middle” value on WT GLUT3 (M -7.31133) turned out to be 12.7467; on WT GLUT3 (M -7.61236) it was 11.0147; at WT GLUT3 (M -7.91339), 6.7796; on WT GLUT3 (M -8.51545) it was 9.6216; on WT GLUT3 (M -8.81648), 7.333; at WT GLUT3 (M -9.11751), 0.514. In addition, the “Figure 1e middle” value in test [2] (M -3.69897) was found to be 12.3879; in test [2] (M -4) it was 6.9876; in test [2] (M -4.30103) it was 10.2535; in test [2] (M -4.60206) it was 7.6812; in test [2] (M -4.90309), 5.043; in test [2] (M -5.20412), 1.714. For the same molecule, the “Figure 1e middle” value was 6.889 in test [2] (M -5.50515); 3.628 in test [2] (M -5.80618); 6.7864 in test [2] (M -6.10721); 7.2964 in test [2] (M -6.40824); 7.035 in test [2] (M -6.70927); 6.292 in test [2] (M -7.0103). The “Figure 1e middle” value in test [2] (M -7.31133) is given as 16.166; in test [2] (M -7.61236), 24.9543; in test [2] (M -7.91339) it was 19.4149; in test [2] (M -8.21442), 19.7489.

`COC1OC(CO)C(O)C(O)C1OC(=O)c1cc(Cl)c(OCc2nc3ccccc3n2C(C)C)c(Cl)c1` (stereo not drawn) [SA2]: the “Inhibition of glucose uptake” value in test [1] is on record as “almost completely abolished”. Further, in test [1] (three independent experiments), the “Figure S1c … of inhibitor (value1-3)” value was 23.4003 and 23.4095 and 22.1495. In addition, on human GLUT3(N43T), the “Inhibition of glucose uptake” value is recorded as “almost completely abolished”; the “Figure S1d: transport activity in presence of inhibitor (value1-3)” value (from here on “Figure S1d … of inhibitor (value1-3)”) was 15.2946 and 13.6199 and 13.8419. In test [3], the “Inhibition of xylose transport” value is “moderately inhibited”; the “Figure S1b: transport activity in presence of inhibitor (value1-3)” value (shortened to “Figure S1b … of inhibitor (value1-3)”) was 58.0461 and 66.7656 and 51.1774.

Consider `C#CCCC(=O)Nc1cccc(COc2c(Cl)cc(C(=O)OC3C(OC)OC(CO)C(O)C3O)cc2OC)c1` (stereo not drawn) [SA3], for which the “Inhibition of glucose uptake” value in test [1] is given as “mildly inhibited”. Further, the “Figure S1c … of inhibitor (value1-3)” value in test [1] (three independent experiments) was 52.3152 and 50.1788 and 49.4073. For the same molecule, on human GLUT3(N43T), the “Inhibition of glucose uptake” value is reported as “mildly inhibited”; the “Figure S1d … of inhibitor (value1-3)” value was 34.7779 and 38.4924 and 41.7666. For the same molecule, the “Figure S1b … of inhibitor (value1-3)” value in test [3] was 88.5699 and 92.3449 and 87.2521.

Regarding `COc1c(Cl)c(OCc2ccccc2)c(Cl)c(C)c1C(=O)OC1C(OC)OC(CO)C(O)C1O` (stereo not drawn) [SA4], in test [1], the “Inhibition of glucose uptake” value was “almost completely abolished”. For the same molecule, the “Figure S1c … of inhibitor (value1-3)” value in test [1] (three independent experiments) was 12.2388 and 8.7146 and 10.3352. Besides, on human GLUT3(N43T), the “Inhibition of glucose uptake” value is recorded as “almost completely abolished”; the “Figure S1d … of inhibitor (value1-3)” value was 6.3677 and 8.1365 and 7.922. In addition, the “Figure S1b … of inhibitor (value1-3)” value in test [3] was 106.928 and 95.1823 and 98.9097.

For `CCOC(=O)c1c(C)c(Cl)c(OC(=O)c2c(C)c(Cl)c(O)c(Cl)c2OC)c(Cl)c1OC` [SA5], in test [1] (three independent experiments), the “Figure S1c … of inhibitor (value1-3)” value is 101.106 and 93.647 and 95.1991. Moreover, the “Figure S1d … of inhibitor (value1-3)” value at human GLUT3(N43T) was 105.451 and 87.0011 and 100.662. Further, the “Figure S1b … of inhibitor (value1-3)” value in test [3] was 86.3087 and 90.0117 and 94.9979.

Consider `COc1ccccc1N1CCN(c2ncnc3c2cnn3-c2cccc(CN)c2)CC1` [SA6], for which, in test [1], the “Inhibition of glucose uptake” value is recorded as “almost completely abolished”. Further, in test [1] (three independent experiments), the “Figure S1c … of inhibitor (value1-3)” value was 5.6059 and 7.7469 and 6.8521. At human GLUT3(N43T), the “Inhibition of glucose uptake” value is listed as “almost completely abolished”; the “Figure S1d … of inhibitor (value1-3)” value is 8.1554 and 7.7188 and 4.7344. Besides, the “Figure S1b … of inhibitor (value1-3)” value in test [3] was 95.2845 and 101.756 and 111.538.
